Test results as given in ChEMBL document CHEMBL3397002, “Design, synthesis, and bioevaluation of paeonol derivatives as potential anti-HBV agents” (Eur J Med Chem, 2015).

Experiments:
[1] = Selectivity index, ratio of TC50 for human HepG2(2.2.15) cells to IC50 for decrease in hepatitis B viral surface antigen HBeAg secretion in human HepG2(2.2.15) cells
[2] = Selectivity index, ratio of TC50 for human HepG2(2.2.15) cells to IC50 for decrease in hepatitis B viral surface antigen HBsAg secretion in human HepG2(2.2.15) cells
Hepatitis B virus [3] = test: Decrease in hepatitis B viral surface antigen HBeAg secretion in human HepG2(2.2.15) cells at 0.75 to 3 uM after 72 hrs by EIA analysis; format: functional, organism-based; conditions: HepG2 2.2.15, 72 h
[4] = Cytotoxicity against human HepG2(2.2.15) cells assessed as decrease in cell viability after 72 hrs by MTS assay; format: cell-based; conditions: read-out: TC50
[5] = Selectivity index, ratio of TC50 for human HepG2(2.2.15) cells to IC50 for decrease in HBV viral DNA replication in human HepG2(2.2.15) cells
Hepatitis B virus [6] = test: Decrease in hepatitis B viral surface antigen HBsAg secretion in human HepG2(2.2.15) cells at 0.75 to 3 uM after 72 hrs by EIA analysis; format: functional, organism-based; conditions: HepG2 2.2.15, 72 h
Hepatitis B virus [7] = test: Decrease in HBV viral DNA replication in human HepG2(2.2.15) cells at 0.75 to 3 uM after 72 hrs by real-time PCR analysis; format: functional, organism-based; conditions: HepG2 2.2.15, 72 h
[8] = Effect on cellular morphology of human HepG2(2.2.15) cells at 0.75 to 3 uM after 72 hrs by Giemsa staining method; format: ADME, cell-based; conditions: hepg2 2.2.15, 72 h
[9] = Effect on cell cycle of human HepG2(2.2.15) cells assessed as cells at G2M phase at 0.75 to 3 uM after 72 hrs by propidium iodide staining based flow cytometry; format: ADME; conditions: hepg2 2.2.15, 72 h
Hepatitis B virus [10] = test: Decrease in level of HBV 3.5-kb precore/pregenomic and 2.4-/2.1-kb surface antigen RNA in human HepG2(2.2.15) cells after 48 hrs by Northern blot analysis; format: functional, organism-based
[11] = Effect on cell cycle of human HepG2(2.2.15) cells assessed as cells at G1 phase at 0.75 to 3 uM after 72 hrs by propidium iodide staining based flow cytometry; format: ADME; conditions: hepg2 2.2.15, 72 h

SMILES	Selectivity Index [1]	Selectivity Index [2]	IC50 (Hepatitis B virus [3])	CC50 at 72 h [4]	Selectivity Index [5]	IC50 (Hepatitis B virus [6])	IC50 (Hepatitis B virus [7])	Activity [8]	Activity [9]	inhibition (Hepatitis B virus [10])	Activity [11]
COc1ccc(C(C)=O)c(OS(=O)(=O)c2ccc([N+](=O)[O-])cc2)c1	2.35	6.17	4.64 µM	10.9 µM	9.5	1.77 µM	1150 nM				
COc1ccc(C(C)=O)c(OS(=O)(=O)c2ccc(F)cc2)c1	4.81	10.64	11.2 µM	53.7 µM	19.82	5.05 µM	2710 nM				
Nc1ccn([C@@H]2CS[C@H](CO)O2)c(=O)n1 [LAMIVUDINE]				352 µM	46.13		7630 nM				
COc1ccc(C(C)=O)c(OS(=O)(=O)c2ccc(Br)cc2)c1	5.42	4.99	1.86 µM	10.1 µM	22.91	2.01 µM	440 nM				
COc1ccc(C(C)=O)c(OS(=O)(=O)c2ccc(N)cc2)c1	0.95	3.17	72.5 µM	68.8 µM		21.7 µM					
COc1ccc(C(C)=O)c(OS(=O)(=O)c2ccc(Cl)cc2)c1	3.28	4.87	4.2 µM	13.8 µM	24.16	2.83 µM	570 nM				
O=c1[nH]cc(F)c(=O)[nH]1 [FLUOROURACIL]				21.7 µM							
COc1ccc(C(C)=O)c(OS(=O)(=O)c2ccccc2)c1	3.36	7.58	16.5 µM	55.4 µM	29.77	7.3 µM	1860 nM				
COc1ccc(S(=O)(=O)Oc2cc(OC)ccc2C(C)=O)cc1	7.67	11.09	2.24 µM	17.2 µM	47.75	1.55 µM	360 nM	Non-toxic	Non-toxic	Dose-dependent effect	Non-toxic
COc1ccc(C(C)=O)c(OS(=O)(=O)c2ccc(C)cc2)c1	3.47	7.46	6.83 µM	23.7 µM	22.81	3.18 µM	1040 nM				
